Data: publication PMC6270921, “Study on the Cytotoxic Activity of Drimane Sesquiterpenes and Nordrimane Compounds against Cancer Cell Lines” (Molecules, 2014)

Experiments:
[1] = test system: MCF-7 cells; assay: Morphological changes, phase contrast microscope; assay type: cell-based, human; conditions: MCF-7, 50 μM compound for 24 h
Description: (§1) First, the appearance of morphological changes in the cells treated with 50 μM compound for 24 h was analyzed.

[2] = test system: CoN cells; assay: Morphological changes, phase contrast microscope; assay type: cell-based, human; conditions: 50 μM compound for 24 h
Description: as §1

[3] = test system: PC-3 cells; assay: Morphological changes, phase contrast microscope; assay type: cell-based, human; conditions: PC-3, 50 μM compound for 24 h
Description: as §1

[4] = Cell viability, sulforhodamine B assay; assay type: cell-based; conditions: human, CCD 841 CoN colon epithelial cells (non-tumoral cell line), 72 h exposure, dilutions 12.5 to 100 μM, non-tumor cell line, read-out: Cytotoxicity IC50, CoN
Description: (§2) The cytotoxicity of compounds 1–12 was evaluated in vitro against different cancer cell lines: MCF-7 breast cancer, DU-145 and PC-3 human prostate cancer, and one non-tumor cell line, human colon epithelial cells CCD 841 CoN (CoN). […] Four serial dilutions (from 12.5 to 100 μM) for each sample were evaluated in triplicate.
(§3) The experimental cell cultures were obtained from the American Type Culture Collection (Rockville, MD, USA). MCF-7 cells (breast cancer cell line), PC-3 and DU-145 (prostate cancer cell lines), and human colon epithelial cells CCD 841 CoN (non-tumoral cell line) were grown in Dulbecco’s modified Eagle’s medium (DMEM) containing 10% FCS, 100 U/mL penicillin, 100 μg/mL streptomycin, and 1 mM glutamine. Cells were seeded into 96 well microtiter plates in 100 μL at a plating density of 5 × 10^3 cells/well. After 24 h incubation at 37 °C under a humidified 5% CO2 atmosphere to allow cell attachment, the cells were treated with different concentrations of drugs and incubated for 72 h under the same conditions. Stock solutions of compounds were prepared in ethanol and the final concentration of this solvent was kept constant at 1%. Control cultures received 1% ethanol alone.
(§4) The sulforhodamine B assay was used according to the method of Skehan et al.. Briefly, the cells were set up at 3 × 10^3 cells per well of a 96 200 μL well, flat-bottomed, microplate. Cells were incubated at 37 °C in a humidified 5% CO2/95% air mixture and treated with the compounds at different concentrations for 72 h. At the end of drug exposure, cells were fixed with 50% trichloroacetic acid at 4 °C. After washing with water, cells were stained with 0.1% sulforhodamine B (Sigma-Aldrich, St. Louis, MO, USA), dissolved in 1% acetic acid (50 μL/well) for 30 min, and subsequently washed with 1% acetic acid to remove unbound stain. Protein-bound stain was solubilized with 100 μL of 10 mM unbuffered Tris base, and the cell density was determined using a […] plate reader (wavelength 540 nm). Values shown are the mean ± SD of three independent experiments in triplicate. The software used to calculate the IC50 values was GraphPad (GraphPad Software, San Diego, CA, USA).

[5] = test system: MCF-7 breast cancer cell line; assay: Cell viability, sulforhodamine B assay; assay type: cell-based; conditions: Homo sapiens, MCF7, 72 h exposure, dilutions 12.5 to 100 μM, read-out: Cytotoxicity IC50, MCF-7
Description: as §2, §3, §4

[6] = test system: DU-145 prostate cancer cell line; assay: Cell viability, sulforhodamine B assay; assay type: cell-based; conditions: Homo sapiens, 72 h exposure, dilutions 12.5 to 100 μM, read-out: Cytotoxicity IC50, DU145
Description: as §2, §3, §4

[7] = test system: PC-3 prostate cancer cell line; assay: Cell viability, sulforhodamine B assay; assay type: cell-based; conditions: Homo sapiens, 72 h exposure, dilutions 12.5 to 100 μM, read-out: Cytotoxicity IC50, PC-3
Description: as §2, §3, §4

[8] = test system: panel of cancer cell lines; assay: Cytotoxicity against a panel of cancer cell lines (summary); assay type: cell-based; conditions: Homo sapiens; summary statement of the conclusions
Description: as §2, §4

[9] = test system: MCF-7 cells; assay: Mitochondrial membrane permeability, rhodamine 123 flow cytometry; assay type: cell-based, human; conditions: control treated cells assigned 100%
Description: (§5) Mitochondria play a crucial role in the apoptotic cascade by serving as a convergent center of apoptotic signals originating from both the extrinsic and intrinsic pathways. Changes induced in the mitochondrial membrane potential (MMP) have been reported previously to represent a determinant in the execution of cell death. As polygodial has been described as an inhibitor of mitochondrial ATPase and also as nonionic surfactant. This effect may be determinant in cell death, we has analyzed the effect of compounds 1, 8 and 12 on the mitochondrial membrane potential using flow cytometry with rhodamine 123 stain [24]. […] Similar differences were observed after treatments with compounds 1 and 8 at 100 μM.
(§6) Rhodamine 123, a cationic, voltage-sensitive probe that reversibly accumulates in mitochondria, was used to detect changes in transmembrane mitochondrial membrane potentials. Cells were labelled with 1 μM rhodamine 123 at 37 °C in cell medium for 60 min before terminating the experiment. Cells were detached from the plate, after washing with ice cold PBS, and the samples were analyzed by flow cytometry. Data are expressed in percentage of cells with rhodamine 123 [24].

[10] = test system: CoN cells; assay: as above; assay type: cell-based, human; conditions: control treated cells assigned 100%
Description: as §5, §6

[11] = test system: PC-3 cells; assay: as above; assay type: cell-based, human; conditions: control treated cells assigned 100%
Description: as §5, §6

[12] = test system: MCF-7 cells; assay: Morphological assessment of cell apoptosis, Hoechst 33342 staining; assay type: cell-based, human; conditions: MCF-7, 24 h exposure, fluorescence microscope
Description: (§7) Nuclear changes in PC-3, MCF-7 and CoN cells were observed under a fluorescence microscope (200×, Figure 4).
(§8) Briefly, on 24-well chamber slides, 1 × 10^4 cells/mL were cultured and exposed to compounds for 24 h. The control group was also exposed to 1% ethanol. The cells were washed twice with phosphate buffer solution, fixed with 3.7% formaldehyde, and washed again with phosphate buffer solution. Following the addition of 1 μM Hoechst 33342 (Sigma-Aldrich, Santiago, Chile), they were reacted in a dark room at room temperature for 30 min. After washing, they were examined under an immunofluorescence microscope (IX 81 model inverted microscope, Olympus, Santiago, Chile).

[13] = test system: CoN cells; assay: as above; assay type: cell-based, human; conditions: 24 h exposure, fluorescence microscope
Description: as §7, §8

[14] = test system: PC-3 cells; assay: as above; assay type: cell-based, human; conditions: PC-3, 24 h exposure, fluorescence microscope
Description: as §7, §8

[15] = test system: Salmonella strains TA 98, TA 2637, and TA 100; conditions: at highest non-toxic concentration; cited from earlier work

With `CC1(C)CCC[C@]2(C)[C@@H](C=O)C(C=O)=CC[C@@H]12` [Compound 1, polygodial] as the molecule, how does the “morphological changes of cells” value [1] read?
The value was “severely distorted”.

And the “morphological changes of cells” value [2]?
The value was “severely distorted”.

What about the “morphological changes of cells” value [3] of the same molecule?
Its value is “severely distorted”.

What about the IC50 at 72 h [4] of the same molecule?
The IC50 at 72 h was over 200 µM.

What about the IC50 [5] of the same molecule?
The IC50 was 93.7 ± 9.1 µM.

And the IC50 [6]?
Its IC50 is 71.4 ± 8.5 µM.

And the IC50 [7]?
Its IC50 is 89.2 ± 6.8 µM.

And the IC50 [8]?
The IC50 was under 200 µM.

What about the “percentage of rhodamine 123 stained cells” value (“percentage” below) ([9]; MCF-7, compound 50 µM) of the same molecule?
Its value is 77.0% ± 6.5%.

What about the “percentage” value ([9]; MCF-7, compound 50 µM, listed as Comp. 1) of the same molecule?
The value was 77.0 ± 6.5 %.

What about the “percentage” value ([9]; MCF-7, compound 100 µM) of the same molecule?
Its value is 19.4 ± 1.5 %.

And the “percentage” value ([10]; compound 50 µM)?
Its value is 111.6% ± 8.9%.

What about the “percentage” value ([10]; compound 50 µM, listed as Comp. 1) of the same molecule?
Its value is 49.1 ± 6.6 %.

What about the “percentage” value ([10]; compound 100 µM) of the same molecule?
Its value is 11.8 ± 2.9 %.

And the “percentage” value ([11]; PC-3, compound 50 µM)?
Its value is 49.1% ± 6.6%.

And the “percentage” value ([11]; PC-3, compound 50 µM, listed as Comp. 1)?
Its value is 111.6 ± 8.9%.

And the “percentage” value ([11]; PC-3, compound 100 µM)?
Its value is 11.9 ± 2.4 %.

What about the “nuclear changes after Hoechst 33342 staining” value (“nuclear changes” below) [12] of the same molecule?
The value was “chromatin condensation and karyopyknosis”.

And the “nuclear changes” value [13]?
The value was “chromatin condensation and karyopyknosis”.

What about the “nuclear changes” value [14] of the same molecule?
Its value is “chromatin condensation and karyopyknosis”.

And the mutagenic activity [15]?
Its mutagenic activity is “no mutagenic activity”.
